In brackets after ≈: the same amount, converted by molar mass. Like-named read-outs stand apart in the source and are kept apart here.
Columns and labels:
A. baumannii A14 [1] = assay: MIC without and with sub-inhibitory polymyxin B (Example 4); assay type: cell-based, Acinetobacter baumannii; details: 1st experiment
[2] = system: Acinetobacter sp. (H064200250); assay: as above; assay type: cell-based
[3] = system: strains of A. baumannii and one strain of Acinetobacter sp.; assay: MIC with sub-inhibitory concentrations (0.25x MIC) of polymyxin B, panel of Acinetobacter strains (Example 4); assay type: cell-based
A. baumannii A489 [4] = assay: Preliminary MBC without and with sub-inhibitory polymyxin B (Example 4); assay type: cell-based, Acinetobacter baumannii; details: Acinetobacter baumannii, preliminary MBC
A. baumannii A401 [5] = assay: as above; assay type: cell-based, Acinetobacter baumannii; details: Acinetobacter baumannii
A. baumannii A387 [6] = assay: MIC without and with sub-inhibitory polymyxin B (Example 4); assay type: cell-based, Acinetobacter baumannii; details: for MIC without PB/MIC + PB: A. baumannii A387; for MIC: Acinetobacter baumannii
[7] = system: Acinetobacter sp. (H064200250); assay: Preliminary MBC without and with sub-inhibitory polymyxin B (Example 4); assay type: cell-based; details: Acinetobacter
Outline: (§1)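 Bactericidal endpoint scored visually on plates incubated at 37° C (18-20 hours): the lowest concentration where growth fell about 90% versus the positive control, generally leaving one colony or none.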

A. baumannii NCTC 13301 [8] = assay: MIC without and with sub-inhibitory polymyxin B (Example 4); assay type: cell-based, Acinetobacter baumannii
A. baumannii J2 [9] = assay: as above; assay type: cell-based, Acinetobacter baumannii; details: for MIC without PB/MIC + PB: A. baumannii J2
A. baumannii A14 [10] = assay: Preliminary MBC without and with sub-inhibitory polymyxin B (Example 4); assay type: cell-based, Acinetobacter baumannii; details: A. baumannii A14, preliminary MBC, 1st experiment
A. baumannii A473 [11] = assay: MIC without and with sub-inhibitory polymyxin B (Example 4); assay type: cell-based, Acinetobacter baumannii; details: +0.06 μg/ml PB, 2nd experiment
A. baumannii ATCC 19606 [12] = assay: Preliminary MBC without and with sub-inhibitory polymyxin B (Example 4); assay type: cell-based, Acinetobacter baumannii; details: Acinetobacter baumannii
A. baumannii A489 [13] = assay: MIC without and with sub-inhibitory polymyxin B (Example 4); assay type: cell-based, Acinetobacter baumannii; details: for MIC without PB/MIC + PB: A. baumannii A489; for MIC: Acinetobacter baumannii
A. baumannii A401 [14] = assay: as above; assay type: cell-based, Acinetobacter baumannii; details: for MIC: Acinetobacter baumannii
A. baumannii A329 [15] = assay: Preliminary MBC without and with sub-inhibitory polymyxin B (Example 4); assay type: cell-based, Acinetobacter baumannii; details: Acinetobacter baumannii, A329, A. baumannii A329, +0.06 μg/ml PB, 2nd experiment, read-out: MBC
A. baumannii A390 = assay: as above; assay type: cell-based, Acinetobacter baumannii; details: Acinetobacter baumannii, A390, A. baumannii A390, +0.06 μg/ml PB, 2nd experiment, read-out: MBC
Outline: as §1

A. baumannii A14 [16] = assay: as above; assay type: cell-based, Acinetobacter baumannii; details: Acinetobacter baumannii, 2nd experiment, read-out: MBC
Outline: as §1

A. baumannii A473 [17] = assay: as above; assay type: cell-based, Acinetobacter baumannii; details: Acinetobacter baumannii, A473, A. baumannii A473, +0.06 μg/ml PB, 2nd experiment, read-out: MBC
Outline: as §1

A. baumannii NCTC 13301 [18] = assay: as above; assay type: cell-based, Acinetobacter baumannii; details: Acinetobacter baumannii
Outline: as §1

A. baumannii A387 [19] = assay: as above; assay type: cell-based, Acinetobacter baumannii; details: Acinetobacter baumannii
A. baumannii NCTC 13301 [20] = assay: MIC without and with sub-inhibitory polymyxin B (Example 4); assay type: cell-based, Acinetobacter baumannii; details: A. baumannii NCTC 13301; +[…] PB; 2nd experiment
A. baumannii A329 [21] = assay: as above; assay type: cell-based, Acinetobacter baumannii; details: +0.06 μg/ml PB, 2nd experiment
A. baumannii ATCC 19606 [22] = assay: as above; assay type: cell-based, Acinetobacter baumannii; details: for MIC without PB/MIC + PB: A. baumannii ATCC 19606; for MIC: Acinetobacter baumannii
A. baumannii J2 [23] = assay: Preliminary MBC without and with sub-inhibitory polymyxin B (Example 4); assay type: cell-based, Acinetobacter baumannii; details: Acinetobacter baumannii, J2, read-out: MBC +[…] PB, A. baumannii J2; +[…] polymyxin B; preliminary MBC; 1st experiment
[24] = ratio, PB 0.06 μg/ml, 1st experiment

`Cc1c(-c2ccc(N)c(F)c2)ccn2c(=O)c(C(=O)O)cc(C3CC3)c12` [Compound 1, 8-(3-fluoro-4-amino-phenyl)-1-cyclopropyl-9-methyl-4-oxo-quinolizine-3-carboxylic acid] was tested, and the “MIC +0.06 μg/ml PB” value (A. baumannii A14 [1]; +0.06 μg/ml polymyxin B) was 0.06 µg/mL, the MIC (A. baumannii A14 [1]; Acinetobacter baumannii, 24 h, without polymyxin B, read-out: MIC without PB) was 32 µg/mL (≈ 90.8 µM) and the “MIC without PB/MIC + PB” value (A. baumannii A14 [1]; ratio, PB 0.06 μg/ml) was 512. The “MIC without PB/MIC + PB” value ([2]; Acinetobacter spp. H064200250 (OXA51), +[…] PB, 2nd experiment) was at least 512, the “MIC without PB/MIC + PB” value ([2]; Acinetobacter spp. H064200250, ratio, PB […], 1st experiment) was at least 256 and the MIC ([2]; Acinetobacter, read-out: MIC +[…] PB, Acinetobacter spp. H064200250, +[…] polymyxin B, 1st experiment) was at most 0.03 µg/mL. The “MIC range with PB (0.25x MIC) Oct. 1, 2008 n = 8” value ([3]; 1st experiment, […] polymyxin B, ATCC 19606, A329, A390 and A473 not taken) was at most 0.03 to 0.06 µg/mL, the “MIC range with PB (0.25x MIC) Oct. 14, 2008 n = 11” value ([3]; 2nd experiment, 0.06 μg/ml polymyxin B, all strains except the ATCC strain) was at most 0.03 to 2 µg/mL and the MBC (A. baumannii A489 [4]; A489, A. baumannii A489, +[…] PB, 2nd experiment, read-out: MBC) was at most 0.03 µg/mL. It also gave an MBC (A. baumannii A489 [4]; A489, read-out: MBC +[…] PB, A. baumannii A489, +[…] polymyxin B, 1st experiment) of at most 0.03 µg/mL, an MBC (A. baumannii A401 [5]; A401, A baumannii A 401, +0.06 μg/ml PB, 2nd experiment, read-out: MBC) of at most 0.03 µg/mL and an MBC (A. baumannii A401 [5]; A401, read-out: MBC +0.06 μg/ml PB, A baumannii A 401, +0.06 μg/ml polymyxin B, 1st experiment) of at most 0.03 µg/mL. For the same compound, the “MIC without PB/MIC + PB” value (A. baumannii A387 [6]; +0.06 μg/ml PB, 2nd experiment) was at least 128, the “MIC without PB/MIC + PB” value (A. baumannii A387 [6]; [24]) was at least 32 and the MIC (A. baumannii A387 [6]; A387, A. baumannii A387, +0.06 μg/ml PB, 2nd experiment, read-out: MIC) was at most 0.03 µg/mL. For the same compound, the MIC (A. baumannii A387 [6]; A387, read-out: MIC +0.06 μg/ml PB, A. baumannii A387, +0.06 μg/ml polymyxin B, 1st experiment) was at most 0.03 µg/mL, the MBC [7] was at most 0.03 µg/mL and the MBC ([7]; read-out: MBC +[…] PB, Acinetobacter spp. H064200250, +[…] polymyxin B, preliminary MBC, 1st experiment) was 0.25 µg/mL (≈ 0.709 µM). The “MIC without PB/MIC + PB” value (A. baumannii NCTC 13301 [8]; A. baumannii NCTC 13301, ratio, PB […], 1st experiment) was at least 1024, the MIC (A. baumannii NCTC 13301 [8]; Acinetobacter baumannii, NCTC13301, read-out: MIC +[…] PB) was at most 0.03 µg/mL and the “MIC without PB/MIC + PB” value (A. baumannii J2 [9]; +[…] PB, 2nd experiment) was at least 512. The “MIC without PB/MIC + PB” value (A. baumannii J2 [9]; ratio, PB […], 1st experiment) was at least 256, the MIC (A. baumannii J2 [9]; Acinetobacter baumannii, J2, read-out: MIC +[…] PB, A. baumannii J2, +[…] polymyxin B, 1st experiment) was at most 0.03 µg/mL and the “MBC +0.06 μg/ml PB” value (A. baumannii A14 [10]; +0.06 μg/ml polymyxin B) was 0.06 µg/mL. For the same compound, the MBC (A. baumannii A14 [10]; Acinetobacter baumannii, without polymyxin B, read-out: MBC without PB) was 32 µg/mL (≈ 90.8 µM), the “MIC without PB/MIC + PB” value (A. baumannii A473 [11]; A. baumannii A473) was 8 and the MIC (A. baumannii A473 [11]; Acinetobacter baumannii, A473, A. baumannii A473, read-out: MIC) was 1 µg/mL (≈ 2.84 µM). For the same compound, the MBC (A. baumannii ATCC 19606 [12]; ATCC19606, A. baumannii ATCC 19606, +0.06 μg/ml PB, 2nd experiment, read-out: MBC) was at most 0.03 µg/mL, the MBC (A. baumannii ATCC 19606 [12]; ATCC19606, read-out: MBC +0.06 μg/ml PB, A. baumannii ATCC 19606, +0.06 μg/ml polymyxin B, 1st experiment) was at most 0.03 µg/mL and the “MIC without PB/MIC + PB” value (A. baumannii A489 [13]; +[…] PB, 2nd experiment) was at least 512. For the same compound, the “MIC without PB/MIC + PB” value (A. baumannii A489 [13]; ratio, PB […], 1st experiment) was at least 128, the MIC (A. baumannii A489 [13]; A489, A. baumannii A489, +[…] PB, 2nd experiment, read-out: MIC) was at most 0.03 µg/mL and the MIC (A. baumannii A489 [13]; A489, read-out: MIC +[…] PB, A. baumannii A489, +[…] polymyxin B, 1st experiment) was at most 0.03 µg/mL. For the same compound, the “MIC without PB/MIC + PB” value (A. baumannii A401 [14]; A baumannii A 401, ratio, PB 0.06 μg/ml, 1st experiment) was at least 128, the MIC (A. baumannii A401 [14]; A401, A baumannii A 401, +0.06 μg/ml PB, 2nd experiment, read-out: MIC) was at most 0.03 µg/mL and the MIC (A. baumannii A401 [14]; A401, read-out: MIC +0.06 μg/ml PB, A baumannii A 401, +0.06 μg/ml polymyxin B, 1st experiment) was at most 0.03 µg/mL. It also gave an MBC (A. baumannii A329 [15]) of 2 µg/mL (≈ 5.68 µM), an MBC (A. baumannii A390) of at most 0.03 µg/mL and an MBC (A. baumannii A14 [16]; A14, A. baumannii A14, +0.06 μg/ml PB) of 0.06 µg/mL (≈ 0.17 µM). It also gave an MBC (A. baumannii A14 [16]; A14, A. baumannii A14, without PB) of 32 µg/mL (≈ 90.8 µM), an MBC (A. baumannii A473 [17]) of 1 µg/mL (≈ 2.84 µM) and an MBC (A. baumannii NCTC 13301 [18]; NCTC13301) of at most 0.03 µg/mL. For the same compound, the MBC (A. baumannii NCTC 13301 [18]; NCTC13301, read-out: MBC +[…] PB) was 0.06 µg/mL (≈ 0.17 µM), the MBC (A. baumannii A387 [19]; A387, A. baumannii A387, +0.06 μg/ml PB, 2nd experiment, read-out: MBC) was at most 0.03 µg/mL and the MBC (A. baumannii A387 [19]; A387, read-out: MBC +0.06 μg/ml PB, A. baumannii A387, +0.06 μg/ml polymyxin B, 1st experiment) was at most 0.03 µg/mL. For the same compound, the “MIC without PB/MIC + PB” value (A. baumannii NCTC 13301 [20]) was at least 1024, the “MIC without PB/MIC + PB” value (A. baumannii A329 [21]; A. baumannii A329) was 8 and the MIC (A. baumannii A329 [21]; Acinetobacter baumannii, A329, A. baumannii A329, read-out: MIC) was 2 µg/mL (≈ 5.68 µM). The “MIC without PB/MIC + PB” value (A. baumannii ATCC 19606 [22]; +0.06 μg/ml PB, 2nd experiment) was at least 8, the “MIC without PB/MIC + PB” value (A. baumannii ATCC 19606 [22]; [24]) was at least 8 and the MIC (A. baumannii ATCC 19606 [22]; ATCC19606, A. baumannii ATCC 19606, +0.06 μg/ml PB, 2nd experiment, read-out: MIC) was at most 0.03 µg/mL. It also gave an MIC (A. baumannii ATCC 19606 [22]; ATCC19606, read-out: MIC +0.06 μg/ml PB, A. baumannii ATCC 19606, +0.06 μg/ml polymyxin B, 1st experiment) of at most 0.03 µg/mL and an MBC (A. baumannii J2 [23]) of at most 0.03 µg/mL.

Source: patent US20190105367A1, “ANTIMICROBIAL 4-OXOQUINOLIZINES” (Emergent Product Development Gaithersburg Inc., priority 2011, published 2019)
